In patent US20180256673A1, “METHODS FOR TREATING FUNGAL INFECTIONS” (priority 2015, published 2018):
Converted amounts (≈) assume the structure as drawn. “And” between values parts separate entries of the source, which are not always exact repeats. Equal values may be shown once. Read-outs that look alike come from different tables or passages of the source.

Experiments:
Candida glabrata = assay: microbe, parasite or virus in culture; type: cell-based
C. krusei ATCC 6258 [1] = assay: Broth microdilution MIC (CLSI), Examples 3 and 4; settings: Pichia kudriavzevii, ATCC6258, 24 h, read-out: Broth MIC
Procedure: Antifungal susceptibility testing. Candida strains were cultured aerobically at 35° C. on SDA plates or in RPMI 1640 broth (pH 7.0). […] MIC assays were performed in triplicate.

Candida parapsilosis = assay: Broth microdilution of invasive fungal isolates (CLSI M27-A3/M38-A2); type: cell-based
C. albicans NRRL Y-477 [2] = assay: microbe, parasite or virus in culture; type: cell-based, Candida albicans; settings: for MIC: Candida albicans
[3] = test system: azole-resistant Candida albicans R357 strain; assay: microbe, parasite or virus in culture; type: cell-based; settings: for Susceptibility (CLSI): C. albicans R357; for MIC: Candida albicans
[4] = test system: C. glabrata ATCC 90030, ATCC 2001; assay: microbe, parasite or virus in culture; type: cell-based, Candida glabrata; settings: for MIC fold-shift: WT to P20; for MIC: Nakaseomyces glabratus
[5] = test system: C. glabrata vaginal isolates; assay: Susceptibility testing of VVC clinical isolates at pH 7 and 4 (CLSI M27-A3); type: cell-based, Candida glabrata; settings: for MIC90: Nakaseomyces glabratus, 21 isolates, read-out: MIC90
C. parapsilosis CP02 = assay: microbe, parasite or virus in culture; type: cell-based, Candida parapsilosis; settings: for MIC: Lodderomyces parapsilosis
C. albicans NRRL Y-477 [6] = assay: Broth microdilution MIC (CLSI), Examples 3 and 4; settings: Candida albicans
Procedure: Antifungal susceptibility testing. […] MIC assays were performed in triplicate.

C. krusei ATCC 6258 [7] = type: cell-based, Candida krusei
Procedure: Spontaneous mutant selection. […] Three individual colonies from each strain were used to start cultures in RPMI. […] One milliliter aliquots were spread onto SDA plates containing drug with sterile glass beads. Starting viable count was enumerated by triplicate plating of serial dilutions of the starting inoculum. […] Glycerol stocks of putative mutant colonies were stored at −80° C. […] Spontaneous mutation frequencies were calculated by dividing the number of resistant colonies on a given plate by the starting inoculum plated. A subset of mutants (weighted heavily towards those selected with CMP1) were then evaluated by MIC and sequencing of FKS gene hot spot regions.

[8] = test system: C. krusei ATCC 6258, ATCC 14243; assay: Time-kill assay in vagina-simulative medium pH 4.0 (Table 20); type: cell-based, Candida krusei
[9] = test system: azole-resistant C. albicans (R357); assay: Immunosuppressed rat model of vulvovaginal candidiasis, vaginal CFU; type: in vivo, Candida albicans; settings: oral 20 mg/kg once daily for three days; days 5 and 12

Structure (SMILES): CC[C@H](C)C[C@H](C)CCCCCCCCC(=O)N[C@H]1C[C@@H](O)[C@@H](NCCN)NC(=O)[C@@H]2[C@@H](O)CCN2C(=O)[C@H]([C@H](O)CCN)NC(=O)[C@H]([C@H](O)[C@@H](O)c2ccc(O)cc2)NC(=O)[C@@H]2C[C@@H](O)CN2C(=O)[C@H]([C@@H](C)O)NC1=O [CAS, caspofungin]
- Cumulative % of isolates inhibited at MIC 0.03 μg/mL (Candida glabrata; 100 isolates): (38.0) %
- Cumulative % of isolates inhibited at MIC 0.06 μg/mL (Candida glabrata; 100 isolates): (89.0) %
- Cumulative % of isolates inhibited at MIC 0.12 μg/mL (Candida glabrata; 100 isolates): (95.0) %
- Cumulative % of isolates inhibited at MIC 0.25 μg/mL (Candida glabrata; 100 isolates): (95.0) %
- Cumulative % of isolates inhibited at MIC 0.5 μg/mL (Candida glabrata; 100 isolates): (95.0) %
- Cumulative % of isolates inhibited at MIC 1 μg/mL (Candida glabrata; 100 isolates): (95.0) %
- Cumulative % of isolates inhibited at MIC 2 μg/mL (Candida glabrata; 100 isolates): (97.0) %
- Cumulative % of isolates inhibited at MIC 4 μg/mL (Candida glabrata; 100 isolates): (97.0) %
- Cumulative % of isolates inhibited at MIC 8 μg/mL (Candida glabrata; 100 isolates): (100.0) %
- Number of isolates inhibited at MIC 0.03 μg/mL (Candida glabrata; 100 isolates): 38
- Number of isolates inhibited at MIC 0.06 μg/mL (Candida glabrata; 100 isolates): 51
- Number of isolates inhibited at MIC 0.12 μg/mL (Candida glabrata; 100 isolates): 6
- Number of isolates inhibited at MIC 0.25 μg/mL (Candida glabrata; 100 isolates): 0
- Number of isolates inhibited at MIC 0.5 μg/mL (Candida glabrata; 100 isolates): 0
- Number of isolates inhibited at MIC 1 μg/mL (Candida glabrata; 100 isolates): 0
- Number of isolates inhibited at MIC 2 μg/mL (Candida glabrata; 100 isolates): 3
- Number of isolates inhibited at MIC 4 μg/mL (Candida glabrata; 100 isolates): 0
- Number of isolates inhibited at MIC 8 μg/mL (Candida glabrata; 100 isolates): 3
- MIC50 (Candida glabrata; Nakaseomyces glabratus): 0.06 µg/mL (≈ 0.0549 µM)
- MIC90 (Candida glabrata; Nakaseomyces glabratus): 0.12 µg/mL (≈ 0.11 µM)
- MIC (Candida glabrata; Nakaseomyces glabratus, read-out: MIC according to CLSI method, isolate from CA, USA, fks1 HS1 S629P): 8 µg/mL (≈ 7.32 µM)
- MIC (Candida glabrata; Nakaseomyces glabratus, read-out: MIC according to CLSI method, isolate from Canada (first line), fks1 HS1 S629P, fks2 HS1 S663P): > 8 µg/mL
- MIC (Candida glabrata; Nakaseomyces glabratus, read-out: MIC according to CLSI method, isolate from Canada (second line), fks1 HS1 S629P, fks2 HS1 S663P): > 8 µg/mL
- MIC (Candida glabrata; Nakaseomyces glabratus, read-out: MIC according to CLSI method, isolate from Israel, fks2 HS1 F659S): 2 µg/mL (≈ 1.83 µM)
- MIC (Candida glabrata; Nakaseomyces glabratus, read-out: MIC according to CLSI method, isolate from NY, USA, fks2 HS1 S663P): 2 µg/mL (≈ 1.83 µM)
- MIC (Candida glabrata; Nakaseomyces glabratus, read-out: MIC results, two isolates from same patient, Edmonton, Canada, fks1 HS1 S629P and fks2 HS1 S663P): > 8 µg/mL
- MIC (C. krusei ATCC 6258 [1]): 0.5 µg/mL (≈ 0.457 µM)
- Cumulative % of isolates inhibited at MIC 0.25 μg/mL (Candida parapsilosis; 92 isolates): (33.7) %
- Cumulative % of isolates inhibited at MIC 0.5 μg/mL (Candida parapsilosis; 92 isolates): (87.0) %
- Cumulative % of isolates inhibited at MIC 1 μg/mL (Candida parapsilosis; 92 isolates): (98.9) %
- Cumulative % of isolates inhibited at MIC 2 μg/mL (Candida parapsilosis; 92 isolates): (100.0) %
- Number of isolates inhibited at MIC 0.25 μg/mL (Candida parapsilosis; 92 isolates): 31
- Number of isolates inhibited at MIC 0.5 μg/mL (Candida parapsilosis; 92 isolates): 49
- Number of isolates inhibited at MIC 1 μg/mL (Candida parapsilosis; 92 isolates): 11
- Number of isolates inhibited at MIC 2 μg/mL (Candida parapsilosis; 92 isolates): 1
- MIC50 (Candida parapsilosis; Lodderomyces parapsilosis, 92 isolates, read-out: MIC50): 0.5 µg/mL (≈ 0.457 µM)
- MIC90 (Candida parapsilosis; Lodderomyces parapsilosis, 92 isolates, read-out: MIC90): 1 µg/mL (≈ 0.915 µM)
- MIC (C. albicans NRRL Y-477 [2]; NRRLY477, 48 h, NRRL Y-477 P20-1, selecting drug ANID, Fks1 HS1 S645Y, 48 h read): 2 µg/mL (≈ 1.83 µM)
- MIC (C. albicans NRRL Y-477 [2]; NRRLY477, 48 h, NRRL Y-477 P20-1, selecting drug CMP1, 48 h read): 0.5 µg/mL (≈ 0.457 µM)
- MIC (C. albicans NRRL Y-477 [2]; NRRLY477, NRRL Y-477 P20-1, selecting drug CAS): 0.25 µg/mL (≈ 0.229 µM)
- MIC (C. albicans NRRL Y-477 [2]; NRRLY477, read-out: MIC P20, NRRL Y-477, total population after 20 passages with the selecting drug, MIC of selecting drug): 0.25 µg/mL
- MIC fold-shift (C. albicans NRRL Y-477 [2]; NRRL Y-477, WT to P20): 1
- Susceptibility (CLSI) [3]: S
- MIC [3]: 0.25 µg/mL (≈ 0.229 µM)
- MIC fold-shift ([4]; ATCC 2001): 8
- MIC fold-shift ([4]; ATCC 90030): 128
- MIC ([4]; 48 h, ATCC 90030 P20-1, selecting drug ANID, Fks2 HS1 D666I, 48 h read): 2 µg/mL (≈ 1.83 µM)
- MIC ([4]; 48 h, ATCC 90030 P20-1, selecting drug CAS, Fks2 HS1 F659I D666Y, 48 h read): 32 µg/mL (≈ 29.3 µM)
- MIC ([4]; ATCC 2001 P20-2, selecting drug ANID, Fks1 HS1 D632Y): 2 µg/mL (≈ 1.83 µM)
- MIC ([4]; ATCC 2001 P20-2, selecting drug CAS): 2 µg/mL (≈ 1.83 µM)
- MIC ([4]; ATCC 2001 P20-2, selecting drug CMP1): 1 µg/mL (≈ 0.915 µM)
- MIC ([4]; ATCC 90030 P20-2, selecting drug CMP1): 1 µg/mL (≈ 0.915 µM)
- MIC ([4]; read-out: MIC P20, ATCC 2001, total population after 20 passages with the selecting drug, MIC of selecting drug): 2 µg/mL
- MIC ([4]; read-out: MIC P20, ATCC 90030, total population after 20 passages with the selecting drug, MIC of selecting drug): 32 µg/mL
- MIC90 ([5]; pH 4, 24 h): 1 µg/mL (≈ 0.915 µM)
- MIC90 ([5]; pH 4, 48 h): 2 µg/mL (≈ 1.83 µM)
- MIC90 ([5]; pH 7, 24 h): 1 µg/mL (≈ 0.915 µM)
- MIC90 ([5]; pH 7, 48 h): 2 µg/mL (≈ 1.83 µM)
- MIC fold-shift (C. parapsilosis CP02; CP02, WT to P20): 2
- MIC (C. parapsilosis CP02; CP02, CP02 P20-1, selecting drug ANID): 0.5 µg/mL (≈ 0.457 µM)
- MIC (C. parapsilosis CP02; CP02, CP02 P20-1, selecting drug CAS): 1 µg/mL (≈ 0.915 µM)
- MIC (C. parapsilosis CP02; CP02, CP02 P20-1, selecting drug CMP1): 1 µg/mL (≈ 0.915 µM)
- MIC (C. parapsilosis CP02; CP02, read-out: MIC P20, CP02, total population after 20 passages with the selecting drug, MIC of selecting drug): 1 µg/mL
- MIC (C. albicans NRRL Y-477 [6]; NRRLY477): 0.5 µg/mL (≈ 0.457 µM)
- MIC (C. albicans NRRL Y-477 [6]; NRRLY477, 24 h, read-out: Broth MIC): 0.25 µg/mL (≈ 0.229 µM)
- Median mutation frequency (C. krusei ATCC 6258 [7]): <3.86E−09
- Plate concentration (C. krusei ATCC 6258 [7]; SDA, minimum concentration to cleanly inhibit growth): 0.5 µg/mL
- Freq. (replicate mutation frequency) (C. krusei ATCC 6258 [7]; replicate plates 1-3): <3.86E−09 (2×) and 3.51E−09

Structure (SMILES): OC(Cn1cncn1)(Cn1cncn1)c1ccc(F)cc1F [FLU, fluconazole]
- % of isolates with fluconazole resistance (Candida parapsilosis; CLSI breakpoints): 4.3%
- Susceptibility to FLU (S/R) ([8]; C. krusei ATCC 6258): R
- Susceptibility to FLU (S/R) ([8]; C. krusei ATCC 14243): R
- Susceptibility (CLSI) [3]: R
- MIC [3]: > 64 µg/mL
- Number of isolates at MIC 2 μg/mL ([5]; 21 VVC isolates, 24 h, pH 4): 5
- Number of isolates at MIC 4 μg/mL ([5]; 21 VVC isolates, 24 h, pH 4): 3
- Number of isolates at MIC ≥4 μg/mL ([5]; 21 VVC isolates, 24 h, pH 4): 13
- Number of isolates at MIC 0.5 μg/mL ([5]; 21 VVC isolates, 24 h, pH 7): 4
- Number of isolates at MIC 1 μg/mL ([5]; 21 VVC isolates, 24 h, pH 7): 2
- Number of isolates at MIC 2 μg/mL ([5]; 21 VVC isolates, 24 h, pH 7): 5
- Number of isolates at MIC 4 μg/mL ([5]; 21 VVC isolates, 24 h, pH 7): 2
- Number of isolates at MIC ≥4 μg/mL ([5]; 21 VVC isolates, 24 h, pH 7): 8
- Number of isolates at MIC 2 μg/mL ([5]; 21 VVC isolates, 48 h, pH 4): 1
- Number of isolates at MIC 4 μg/mL ([5]; 21 VVC isolates, 48 h, pH 4): 2
- Number of isolates at MIC ≥4 μg/mL ([5]; 21 VVC isolates, 48 h, pH 4): 18
- Number of isolates at MIC 1 μg/mL ([5]; 21 VVC isolates, 48 h, pH 7): 3
- Number of isolates at MIC 2 μg/mL ([5]; 21 VVC isolates, 48 h, pH 7): 4
- Number of isolates at MIC 4 μg/mL ([5]; 21 VVC isolates, 48 h, pH 7): 2
- Number of isolates at MIC ≥4 μg/mL ([5]; 21 VVC isolates, 48 h, pH 7): 12
- MIC90 ([5]; pH 4, 24 h): 64 µg/mL (≈ 209 µM)
- MIC90 ([5]; pH 4, 48 h): > 64 µg/mL
- MIC90 ([5]; pH 7, 24 h): 16 µg/mL (≈ 52.2 µM)
- MIC90 ([5]; pH 7, 48 h): > 64 µg/mL
- reduction in vaginal CFU compared with no treatment control [9]: < 1 log-fold
